The values below are quoted from earlier work in patent publication EP0611304B1, “USE OF […] (ACEMANNAN) FOR THE REGULATION OF BLOOD C[…] AND FOR REMOVING PLAQUES IN BLOOD VESSELS” (CARRINGTON LABORATORIES, INC., priority 1991, dated 1993).

This data set relates to CEM cells infected with HTLV-IIIRFII virus. The conditions noted are these: 0.001 µg/ml AZT alone.

Take `Cc1cn([C@H]2C[C@H](N=[N+]=[N-])[C@@H](CO)O2)c(=O)[nH]c1=O` [AZT, Zidovudine]: the “increase in viability of infected CEM cells” value is “no more than 10%”.
